Results on 59 sequences are retold here after the supplement of paper PMC11208160.
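Note: IS621 recombinase and bridge RNA in Escherichia coli cells.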

The data set is described as follows: recombinant barcode read abundance after kanamycin selection (control-corrected) (log10(CPM+1)); higher = more efficient recombination; sequences stand for … in AGTGCAGAGAAAATCGGCCAGTTTTCTCTGCCTGCAGTCCGCATGCCGT…AGATTTATGCAGCGGACTGCCTTTCTCCCAAAGTGATAAACCGGACAGTATCATGGACCGGTTTTCCCGGTAATCCGTATTTGCAAGGTTGGTTTCACT; site = the 11-nt target. As to the method:
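Pooled E. coli target-specificity screen for the IS621 bridge recombinase. Each library plasmid pairs an 11-nt target (CT core) with a bridge RNA whose target-binding loop (9-nt LTG + 4-nt RTG) is reprogrammed; the rest of the 177-nt WT IS621 bridge RNA scaffold is fixed. The plasmid is co-electroporated with a WT donor plasmid; recombinase is induced with 0.1 mM IPTG and recombinants are selected on kanamycin. Recombinant barcodes are sequenced, converted to CPM, averaged over two biological replicates and corrected by the unselected control CPM. Molecule = full bridge RNA written as DNA: LTG = specificity nt 1-9, RTG = reverse complement of specificity nt 8-11, in the WT scaffold.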
For the sequence “ACGCATTCTTGGGTTCTAACCTGTTGCCT (site ACGCAGTCTAG)”, the “recombinant barcode read abundance (log10)” value worked out at 0.0603.

On to “ACGCATTCTTGGGTTCTAACCTGTTGCCT (site ACGCATTCTAG)”, for which the “recombinant barcode read abundance (log10)” value came to 0.355.

For “ACGCGCCCTTGGGTTCTAACCTGTTGCAC (site ACGCGCCCTGT)”, the “recombinant barcode read abundance (log10)” value was 0.152.

In the case of “ACGCGCCCTTGGGTTCTAACCTGTTGCAC (site CCGCGCCCTAT)”, the “recombinant barcode read abundance (log10)” value came out at 0.0707.

Regarding “ACGCTATCTTGGGTTCTAACCTGTTGCTT (site ACGCTATCTAA)”, the “recombinant barcode read abundance (log10)” value was determined as 0.13.

For “ACGCTATCTTGGGTTCTAACCTGTTGCTT (site CTAGCGACTCG)”, the “recombinant barcode read abundance (log10)” value came out at 0.159.

Consider “ACGGCATCTTGGGTTCTAACCTGTTGCCT (site ACGGCATCTAG)”, for which the “recombinant barcode read abundance (log10)” value is 0.0883.

For the sequence “ACGGCATCTTGGGTTCTAACCTGTTGCCT (site ACGGCCTCTAA)”, the “recombinant barcode read abundance (log10)” value was found to be 0.225.

On to “ACGGGCTCTTGGGTTCTAACCTGTTGCTT (site ACGGGCTCTAA)”, for which the “recombinant barcode read abundance (log10)” value was determined as 2.69.

For “ACGGGCTCTTGGGTTCTAACCTGTTGCTT (site AGGGGCTCTCA)”, the “recombinant barcode read abundance (log10)” value came to 0.032.

Consider “ACGGTCACTTGGGTTCTAACCTGTTGCCG (site ACGGTCACTCG)”, for which the “recombinant barcode read abundance (log10)” value was found to be 0.435.

In the case of “ACGGTCACTTGGGTTCTAACCTGTTGCCG (site AGGGGCACTCG)”, the “recombinant barcode read abundance (log10)” value stood at 0.533.

Take “ACGTCAACTTGGGTTCTAACCTGTTGCCT (site ACATCAACTAG)”: the “recombinant barcode read abundance (log10)” value turned out to be 0.192.

Take “ACGTCAACTTGGGTTCTAACCTGTTGCCT (site ACCTCAACTAG)”: the “recombinant barcode read abundance (log10)” value is 0.454.

Regarding “ACGTCAACTTGGGTTCTAACCTGTTGCCT (site ACGTCAACTAG)”, the “recombinant barcode read abundance (log10)” value was found to be 0.0389.

Take “ACGTCAACTTGGGTTCTAACCTGTTGCCT (site ACTTCAACTAG)”: the “recombinant barcode read abundance (log10)” value amounted to 0.0307.

Take “ACGTTTCCTTGGGTTCTAACCTGTTGCAT (site AAGTTTCCTAC)”: the “recombinant barcode read abundance (log10)” value stood at 0.0104.

Consider “ACGTTTCCTTGGGTTCTAACCTGTTGCAT (site ACGTTTCCTAT)”, for which the “recombinant barcode read abundance (log10)” value was 0.0487.

For the sequence “ACTAAGTCTTGGGTTCTAACCTGTTGCCT (site AATAAGTCTAG)”, the “recombinant barcode read abundance (log10)” value amounted to 0.106.

With “ACTAAGTCTTGGGTTCTAACCTGTTGCCT (site ACTAAGTCTAG)”, the “recombinant barcode read abundance (log10)” value turned out to be 0.53.

Regarding “ACTAAGTCTTGGGTTCTAACCTGTTGCCT (site AGTAAGTCTAG)”, the “recombinant barcode read abundance (log10)” value is 0.0249.

For the sequence “ACTAAGTCTTGGGTTCTAACCTGTTGCCT (site ATTAAGTCTAG)”, the “recombinant barcode read abundance (log10)” value amounted to 0.0792.

Consider “ACTACTACTTGGGTTCTAACCTGTTGCCA (site ACTACTACTTG)”, for which the “recombinant barcode read abundance (log10)” value was found to be 0.0676.

Regarding “ACTACTACTTGGGTTCTAACCTGTTGCCA (site GGTACTACTTG)”, the “recombinant barcode read abundance (log10)” value came out at 0.433.

Regarding “ACTAGAACTTGGGTTCTAACCTGTTGCAA (site ACTAGAACTTT)”, the “recombinant barcode read abundance (log10)” value turned out to be 0.402.

With “ACTAGAACTTGGGTTCTAACCTGTTGCAA (site ACTAGGACTCT)”, the “recombinant barcode read abundance (log10)” value worked out at 0.116.

As to “ACTAGCTCTTGGGTTCTAACCTGTTGCTA (site ACTAGCTCTTA)”, the “recombinant barcode read abundance (log10)” value came to 0.145.

As to “ACTAGCTCTTGGGTTCTAACCTGTTGCTA (site ACTAGGTCTTA)”, the “recombinant barcode read abundance (log10)” value was determined as 0.0229.

As to “ACTAGGACTTGGGTTCTAACCTGTTGCAG (site ACTAGAACTTT)”, the “recombinant barcode read abundance (log10)” value amounted to 0.0381.

For “ACTAGGACTTGGGTTCTAACCTGTTGCAG (site ACTAGGACTCT)”, the “recombinant barcode read abundance (log10)” value was determined as 2.49.

Consider “ACTAGGACTTGGGTTCTAACCTGTTGCGC (site ACTAGGACTAC)”, for which the “recombinant barcode read abundance (log10)” value worked out at 0.571.

In the case of “ACTAGGACTTGGGTTCTAACCTGTTGCGC (site ACTAGGACTCC)”, the “recombinant barcode read abundance (log10)” value stood at 0.478.

Consider “ACTAGGACTTGGGTTCTAACCTGTTGCGC (site ACTAGGACTGC)”, for which the “recombinant barcode read abundance (log10)” value came out at 2.3.

In the case of “ACTAGGACTTGGGTTCTAACCTGTTGCGC (site ACTAGGACTTC)”, the “recombinant barcode read abundance (log10)” value is 0.0123.

As for “ACTCACCCTTGGGTTCTAACCTGTTGCGG (site ACTCACCCTCC)”, the “recombinant barcode read abundance (log10)” value was 2.62.

On to “ACTCACCCTTGGGTTCTAACCTGTTGCGG (site CTATTAACTTA)”, for which the “recombinant barcode read abundance (log10)” value amounted to 0.126.

As to “ACTCCGTCTTGGGTTCTAACCTGTTGCCT (site ACTCCGTCTAG)”, the “recombinant barcode read abundance (log10)” value was 1.28.

“ACTCCGTCTTGGGTTCTAACCTGTTGCCT (site ACTGCGTCTAG)”: the “recombinant barcode read abundance (log10)” value worked out at 0.109.

With “ACTCGATCTTGGGTTCTAACCTGTTGCCT (site ACTCGATCTAG)”, the “recombinant barcode read abundance (log10)” value was found to be 0.595.

“ACTCGATCTTGGGTTCTAACCTGTTGCCT (site AGTCGATCTAA)”: the “recombinant barcode read abundance (log10)” value turned out to be 0.0189.

With “ACTCGGCCTTGGGTTCTAACCTGTTGCCT (site ACTCGGCCTAC)”, the “recombinant barcode read abundance (log10)” value came out at 0.0497.

Turning to “ACTCGGCCTTGGGTTCTAACCTGTTGCCT (site ACTCGGCCTAG)”, the “recombinant barcode read abundance (log10)” value was 1.45.

“ACTCGTCCTTGGGTTCTAACCTGTTGCTA (site ACTCGTCCTTA)”: the “recombinant barcode read abundance (log10)” value turned out to be 0.584.

With “ACTCGTCCTTGGGTTCTAACCTGTTGCTA (site GAGAAGACTAC)”, the “recombinant barcode read abundance (log10)” value amounted to 0.0362.

Take “ACTGATACTTGGGTTCTAACCTGTTGCCT (site ACTGATACTAG)”: the “recombinant barcode read abundance (log10)” value worked out at 1.84.

As for “ACTGATACTTGGGTTCTAACCTGTTGCCT (site ACTGATCCTAG)”, the “recombinant barcode read abundance (log10)” value is 0.0466.

For “ACTGATACTTGGGTTCTAACCTGTTGCCT (site ACTGATGCTAG)”, the “recombinant barcode read abundance (log10)” value is 0.313.

For “ACTGATACTTGGGTTCTAACCTGTTGCCT (site ACTGATTCTAG)”, the “recombinant barcode read abundance (log10)” value amounted to 0.241.

Consider “ACTGATCCTTGGGTTCTAACCTGTTGCAT (site ACTGATCCTAT)”, for which the “recombinant barcode read abundance (log10)” value is 2.35.

On to “ACTGATCCTTGGGTTCTAACCTGTTGCAT (site TTCTTAACTCC)”, for which the “recombinant barcode read abundance (log10)” value came out at 0.00751.

With “ACTGATCCTTGGGTTCTAACCTGTTGCCT (site ACTGATACTAG)”, the “recombinant barcode read abundance (log10)” value was 0.00756.

Regarding “ACTGATCCTTGGGTTCTAACCTGTTGCCT (site ACTGATCCTAG)”, the “recombinant barcode read abundance (log10)” value came to 2.1.

On to “ACTGATCCTTGGGTTCTAACCTGTTGCCT (site ACTGATGCTAG)”, for which the “recombinant barcode read abundance (log10)” value was 0.671.

As to “ACTGATCCTTGGGTTCTAACCTGTTGCCT (site ACTGATTCTAG)”, the “recombinant barcode read abundance (log10)” value is 0.0263.

Turning to “ACTGGGTCTTGGGTTCTAACCTGTTGCGT (site ACATGGTCTAC)”, the “recombinant barcode read abundance (log10)” value was determined as 0.254.

“ACTGGGTCTTGGGTTCTAACCTGTTGCGT (site ACTGGGTCTAC)”: the “recombinant barcode read abundance (log10)” value came to 2.66.

On to “ACTGGGTCTTGGGTTCTAACCTGTTGCTT (site ACTGAGTCTAA)”, for which the “recombinant barcode read abundance (log10)” value was 0.782.

In the case of “ACTGGGTCTTGGGTTCTAACCTGTTGCTT (site ACTGGGTCTAA)”, the “recombinant barcode read abundance (log10)” value is 1.41.

In the case of “ACTGGTACTTGGGTTCTAACCTGTTGCCT (site ACGGGTACTAG)”, the “recombinant barcode read abundance (log10)” value turned out to be 0.161.
